Assay results from patent US9510598B2, “Nitrogen-containing heterocyclic compounds for plant disease control” (BAYER CROPSCIENCE AG, priority 2012, dated 2016).
Several values for one entry are separate records, joined by “and”; a condition that tells them apart may be missing. Equal values may be shown once. Read-outs that look alike come from different tables or passages of the source.

Legend:
Septoria tritici = assay: In vivo preventive test on Septoria tritici (leaf spot on wheat); conditions: 500 ppm; wheat plants sprayed 24 hours before contamination; grading 21 to 28 days after contamination vs control plants
Method in brief: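 Scipion wheat at 1-leaf stage sprayed with compound, controls receiving acetone/tween/DMSO/water vehicle; 24 h later leaves inoculated with Septoria tritici spores (500 000 spores per ml). Efficacy (%) graded versus control plants 21 to 28 days after contamination.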

[1] = type: physicochemical
Phytophthora infestans = type: in vivo; conditions: 500 ppm; tomato plants sprayed 24 hours before contamination; grading 5 days after contamination vs control plants
Botrytis cinerea = assay: In vivo preventive test on Botrytis cinerea (grey mould); conditions: 500 ppm; gherkin plants sprayed 24 hours before contamination; grading 4-5 days after contamination vs control plants
Method in brief: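 Gherkin plants ("Vert petit de Paris") sprayed with compound at Z11 cotyledon stage, then inoculated 24 h later with B. cinerea spores (50 000/ml) in PDB/fructose/NH4NO3/KH2PO4 nutrient solution. Incubated at 17 °C, 80% RH; % efficacy versus solvent-treated controls graded 4–5 days after contamination.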

Sphaerotheca fuliginea = assay: In vivo preventive test on Sphaerotheca fuliginea (powdery mildew on cucurbits); conditions: 500 ppm; gherkin plants sprayed 24 hours before contamination; grading 12 days after contamination vs control plants
Method in brief: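 Preventive spray of gherkin plants at Z11 cotyledon stage, grown at 24° C; inoculation 24 hours later with Sphaerotheca fuliginea spores (100 000 spores per ml). Efficacy graded 12 days post-inoculation as % versus solvent-treated control plants.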

Alternaria brassicae = assay: In vivo preventive test on Alternaria brassicae (leaf spot on radish); conditions: 500 ppm; radish plants sprayed 24 hours before contamination; grading 5 days after contamination vs control plants
Description: Radish plants (“Pernod Clair” variety), sown in starter cups on a 50/50 peat soil-pozzolana substrate and grown at 17° C., are treated at the 2-leaf stage by spraying with the active ingredient prepared as described above. Plants, used as controls, are treated with the mixture of acetone/tween/DMSO/water not containing the active material. After 24 hours, the plants are contaminated by spraying the leaves with an aqueous suspension of Alternaria brassicae spores (50 000 spores per ml). The spores are collected from a 15-day-old culture. […] Grading (% of efficacy) is carried out 5 days after the contamination, in comparison with the control plants.

[2] = method [a]: HPLC/LC-MS on reversed phase at pH 2.7, 0.1% formic acid in water / acetonitrile, gradient 10% to 95% acetonitrile
[3] = method [a]: HPLC/LC-MS on reversed phase at pH 2.7, 0.1% formic acid in water / acetonitrile, linear gradient 10% to 95% acetonitrile
[4] = HPLC on reversed phase columns, method [a]: pH 2.7, 0.1% formic acid in water / acetonitrile, linear gradient 10% to 95% acetonitrile
[5] = HPLC on reversed phase columns, method [a]: pH 2.7, 0.1% formic acid in water and acetonitrile, linear gradient 10% to 95% acetonitrile

Compound	% of efficacy (protection) (Septoria tritici) [%]	log P [1, 2]	% of efficacy (protection) (Phytophthora infestans) [%]	% of efficacy (protection) (Botrytis cinerea) [%]	% of efficacy (protection) (Sphaerotheca fuliginea)	log P [1, 3]	% of efficacy (protection) (Alternaria brassicae) [%]	log P [1, 4]	log P [1, 5]
CCCn1cc(CNC(=O)C2(OC)CC(c3ccc4ncc(I)cc4c3)=NO2)c(C)n1 (racemic) [compound 449]	98	2.73[a]	100	99	100%				
CC1(C(=O)NCC2(c3ccc(F)cc3)CC2)CC(c2ccc3ncc(Br)cc3c2)=NO1 (centres unmarked) [compound 221]						3.81^[a]	98		
C#Cc1cnc2ccc(C3=NOC(C)(C(=O)NCc4cnn(C(C)C)c4)C3)cc2c1 (centres unmarked) [compound 197]	86		97	100	98%	2.23^[a]			
CCOCCCNC(=O)C1(CC2CC2)CC(c2ccc3ncc(Br)cc3c2)=NO1 (racemic) [compound 426]		3.55[a]					78		
C#Cc1cnc2ccc(C3=NOC(C)(C(=O)NCc4ccc5[nH]c(C)cc5c4)C3)cc2c1 (centres unmarked) [compound 226]						2.84^[a]	81		
CC1(C(=O)NCc2cccc(OC(F)(F)F)c2)CC(c2ccc3ncc(Br)cc3c2)=NO1 (centres unmarked) [compound 188]						3.89^[a]	88		
C#Cc1cnc2ccc(C3=NOC(C)(C(=O)NCc4cnn(CC)c4C)C3)cc2c1 (centres unmarked) [compound 195]	100		100	97	98%	2.11^[a]			
C#Cc1cnc2ccc(C3=NOC(C)(C(=O)NC(C)COCC)C3)cc2c1 (centres unmarked) [compound 506]	100	2.55[a]	94	100	97%				
CC1(C(=O)NCc2ccnc(N3CCOCC3)c2)CC(c2ccc3ncc(Br)cc3c2)=NO1 (centres unmarked) [compound 98]						1.51^[a]	70		
C#Cc1cnc2ccc(C3=NOC(C)(C(=O)NC(C)(C)C#CCOC)C3)cc2c1 (centres unmarked) [compound 465]	97	2.82[a]	100	88	81%				
CC1(C(=O)NCc2csc3ccc(Cl)cc23)CC(c2ccc3ncc(Br)cc3c2)=NO1 (centres unmarked) [compound 241]							81	4.21^[a]	
CC1(C)OCC(CNC(=O)C2(C)CC(c3ccc4ncc(I)cc4c3)=NO2)O1 (centres unmarked) [compound 474]	97	2.78[a]	78	100	98%				
CC1(C(=O)NCc2ccc(Cl)cc2Cl)CC(c2ccc3ncc(Br)cc3c2)=NO1 (centres unmarked) [compound 95]						4.16^[a]	70		
C#Cc1cnc2ccc(C3=NOC(C)(C(=O)NCc4ccc5c(c4)OCCO5)C3)cc2c1 (centres unmarked) [compound 208]						2.71^[a]	88		
C#Cc1cnc2ccc(C3=NOC(OC)(C(=O)NCc4c(C)cnn4CCC)C3)cc2c1 (centres unmarked) [compound 409]	100	2.33[a]	100	100	98%				
CCn1ncc(CNC(=O)C2(C)CC(c3ccc4ncc(Br)cc4c3)=NO2)c1C (centres unmarked) [compound 100]	75		98	97	94%	2.37^[a]			
C#Cc1cnc2c(Cl)cc(C3=NOC(C)(C(=O)NCc4cn(CC)nc4C)C3)cc2c1 (centres unmarked) [compound 550]	100		83	98	80%			2.53[a]	

Compound	% of efficacy (protection) (Septoria tritici) [%]	log P [1, 2]	% of efficacy (protection) (Phytophthora infestans) [%]	% of efficacy (protection) (Botrytis cinerea) [%]	% of efficacy (protection) (Sphaerotheca fuliginea)	log P [1, 3]	% of efficacy (protection) (Alternaria brassicae) [%]	log P [1, 4]	log P [1, 5]
C#Cc1cnc2c(C)cc(C3=NOC(C)(C(=O)NCc4cn(CCC)nc4C)C3)cc2c1 (centres unmarked) [compound 533]	100		90	100	100%			2.90[a]	
C#Cc1cnc2ccc(C3=NOC(C)(C(=O)NC4CCOCC4C)C3)cc2c1 (centres unmarked) [compound 470]	97	2.21[a]	98	100	75%				
CC(NC(=O)C1(C)CC(c2ccc3ncc(Br)cc3c2)=NO1)C1CCOC1 (centres unmarked) [compound 291]	100		87	88	80%			2.46[a]	
C#Cc1cnc2ccc(C3=NOC(C)(C(=O)NCc4cnn(CC)c4CC)C3)cc2c1 (centres unmarked) [compound 464]	100	2.37[a]	100	98	100%				
CCCn1cc(CNC(=O)C2(CC)CC(c3ccc4ncc(Br)cc4c3)=NO2)c(C)n1 (centres unmarked) [compound 500]	86	2.91[a]	94	85	100%				
C#Cc1cnc2ccc(C3=NOC(C)(C(=O)NCc4cn(CCC)nc4C)C3)cc2c1 (centres unmarked) [compound 83]	92		97	100	97% and 98%	2.39^[a]			
C#Cc1cnc2ccc(C3=NOC(C)(C(=O)NC(C)(C)/C=N/OC)C3)cc2c1 (centres unmarked) [compound 463]	100	2.92[a]	100	100	97%				
C#Cc1cnc2ccc(C3=NOC(OC)(C(=O)NC(C)(C)c4cc(C)ccn4)C3)cc2c1 (centres unmarked) [compound 511]	100	1.95[a]	100	100	88%				
C#Cc1cnc2ccc(C3=NOC(C)(C(=O)NC(C)C)C3)cc2c1 (centres unmarked) [compound 40]	100		97	100	100%	2.28^[a]			
C=CC1(C(=O)NCCCOCC)CC(c2ccc3ncc(I)cc3c2)=NO1 (centres unmarked) [compound 730]	100		100	85	98%				3.19[a]
CCn1cc(CNC(=O)C2(CC)CC(c3ccc4ncc(Br)cc4c3)=NO2)c(C)n1 (centres unmarked) [compound 70]	100		82	93	100%	2.66^[a]			
C#Cc1cnc2ccc(C3=NOC(C=C)(C(=O)NCC4COC(C)(C)O4)C3)cc2c1 (centres unmarked) [compound 725]	100		83	98	98%				2.66[a]
C#Cc1cnc2ccc(C3=NOC(CC)(C(=O)NCc4cn(CCC)nc4C)C3)cc2c1 (racemic) [compound 445]	94	2.64[a]	100	93	94%				
C#Cc1cnc2ccc(C3=NOC(C)(C(=O)NCc4cnn(CC)c4)C3)cc2c1 (centres unmarked) [compound 181]			92	92	98%	2.04^[a]			
C#Cc1cnc2ccc(C3=NOC(OC)(C(=O)NC(C)(C)c4nc(C)cs4)C3)cc2c1 (centres unmarked) [compound 514]	98		97	100	75%			2.90[a]	
CCn1cc(CNC(=O)C2(SC)CC(c3ccc4ncc(Br)cc4c3)=NO2)c(C)n1 (centres unmarked) [compound 565]	100		99	100	98%			2.51[a]	
